The structures appear in SMILES notation. In brackets after ≈: the same amount, converted by molar mass.

A short description of series [1]: Protein binding test (dialysis), human. As to conditions: for fraction unbound at 5 h, 1 μM: human plasma. The series is classed as in vitro ADME. On the procedure: (§1) • 1. Spiking Solutions of Test and Reference Compounds • 1.1 Solution A (0.5 mM): Add 10 μL of 10 mM stock solution into 190 μL of DMSO. • 1.2 Solution B (0.02 mM): Add 8 μL of Solution A into 192 μL of 0.05 M sodium phosphate buffer. The final DMSO concentration in Solution B is 4%. • 2. Preparation of Test and Reference Compounds • 2.1 Preload a 96-well plate with 380 μL aliquots of plasma in the wells designated for plasma and buffer, respectively. • 2.2 Spike 20 μL of Solution B (0.02 mM of test and reference compounds) into the pre-loaded plasma in the 96-well plate. The final test concentration is 1 μM containing 0.2% DMSO. • 3. Dialysis Sample Loading • 3.1 Preparing plasma against buffer system (duplicate): Apply aliquots of 100 μL of blank dialysis buffer to the receiver side of dialysis chambers. Then apply aliquots of 100 μL of the plasma spiked with test and reference compounds to the donor side of the dialysis chambers. • 3.2 Preparing T0 plasma samples for initial concentrations (duplicate): • 3.2.1 Aliquot 25 μL of the plasma spiked with test and reference compounds into a 96-well sample preparation plate as T0 plasma samples • 3.2.2 Mix the aliquots with same volume of blank buffer (50:50, v/v). • 3.2.3 Quench the samples with 200 μL of acetonitrile containing internal standard (IS). • 3.3 Cover the dialysis block with a plastic lid and place the entire apparatus in a shaker (60 rpm) for 5 hours at 37° C. • 3.4 Preparing dialyzed samples after 5-hour incubation: • 3.4.1 Aliquot 25 μL from both the donor sides and receiver sides of the dialysis apparatus into new sample preparation plates and mix the aliquots with same volume of opposite matrixes (blank buffer to plasma and vice versa). • 3.4.2 Quench the samples with 200 μL acetonitrile containing internal standard (IS). Vortex all the samples (from 0 h and 5 h) at 600 rpm for 10 min followed by centrifugation at 5594 g for 15 minutes (ThermoMultifuge×3R). • 3.4.3 Transfer 50 μL of the supernatants to a new 96-well plate and mix the samples with 50 μL of Milli-Q water. Cover the sample plate and store it in a freezer (−20° C.) until LC/MS/MS analysis.

A short description of series [2]: Protein binding test (dialysis), rat. It is filed as in vitro ADME. The conditions noted are these: for fraction unbound at 5 h, 1 μM: rat plasma. How it is done: as §1
A short description of series [3]: Protein binding test (dialysis), dog. It is filed as in vitro ADME. As to conditions: for fraction unbound at 5 h, 1 μM: dog plasma. On the procedure: as §1
Series [4] can be described thus: Metabolic stability test, DLM. It is filed as in vitro ADME. As to conditions: dog, liver microsomes; for CLint scaled at 1 μM: pH 7.4, read-out: Cl (mL/min/kg) DLM; for half-life at 1 μM: pH 7.4, read-out: T1/2 (min) DLM. On the procedure:
(§2) • 1. Buffers: • Buffer A: 1.0 L of 0.1 M monobasic Potassium Phosphate buffer containing 1.0 mM EDTA • Buffer B: 1.0 L of 0.1 M Dibasic Potassium Phosphate buffer containing 1.0 mM EDTA • Buffer C: 0.1 M Potassium Phosphate buffer, 1.0 mM EDTA, pH 7.4 by titrating 700 mL of buffer B with buffer A while monitoring with the pH meter. • 2. Reference compounds (Ketanserin) and test compounds spiking solution: • 500 μM spiking solution: add 10 μL of 10 mM DMSO stock solution into 190 μL ACN. • 1.5 μM spiking solution in microsomes (0.75 mg/mL): add 1.5 μL of 500 μM spiking solution and 18.75 μL of 20 mg/mL liver microsomes into 479.75 μL of Buffer C on ice. • 3. Prepare NADPH stock solution (6 mM) by dissolving NADPH into buffer C. • 4. Dispense 30 μL of 1.5 μM spiking solution containing 0.75 mg/mL microsomes solution to the assay plates designated for different time points (0-, 5-, 15-, 30-, 45-min) on ice. • 5. For 0-min time point, add 135 μL of ACN containing IS to the wells of 0-min plate and then add 15 μL of NADPH stock solution (6 mM). • 6. Pre-incubate all other plates at 37° C. for 5 minutes. • 7. Add 15 μL of NADPH stock solution (6 mM) to the plates to start the reaction and timing. • 8. At 5-min, 15-min, 30-min, and 45-min, add 135 μL of ACN containing IS to the wells of corresponding plates, respectively, to stop the reaction. • 9. After quenching, shake the plates at the vibrator (IKA, MTS 2/4) for 10 min (600 rpm/min) and then centrifuge at 5594 g for 15 min (ThermoMultifuge×3R). • 10. Transfer 50 μL of the supernatant from each well into a 96-well sample plate containing 50 μL of ultra pure water (Millipore, ZMQS50F01) for LC/MS analysis.
For orientation: Liver microsomes are vesicles of endoplasmic reticulum, rich in cytochrome P450 enzymes.

The nature of series [5]: Metabolic stability test, RLM. It is filed as in vitro ADME. The conditions noted are these: rat, liver microsomes; for CLint scaled at 1 μM: pH 7.4, read-out: Cl (mL/min/kg) RLM; for half-life at 1 μM: pH 7.4, read-out: T1/2 (min) RLM. How it is done: as §2
Series [6] has as its system IL-8 in THP-1 induced by MDP. Nature of the series: THP-1 cell assay, IL-8 ELISA after MDP. It is filed as cell-based. The conditions noted are these: Homo sapiens; test compounds 10 nM; THP-1, MDP induced. On the procedure:
Acute monoblastic and monocytic leukemia (THP-1) was obtained from ATCC (item NO. TIB-202™). The temperature of the sterile incubator is 37˜38° C., the osmotic pressure is 260˜320 mmol/L, the pH range is 7.2˜7.4, and the ratio of carbon dioxide gas is 5%.
Cells were seeded in 96-well plates. After an hour, cells were incubated with test compounds for 2 hours. MDP (10 μL) was added and incubated for 6 hours. The samples were centrifuged (3000 rmp/min) for 5 minutes. The concentration of IL-8 in the supernatants was detected by IL-8 ELISA.
Background: In an ELISA, binding on a coated surface is turned into a signal by an enzyme label.

Series [7] is described as follows: Thermodynamic solubility test. The conditions noted are these: thermodynamic from solid; FaSSIF pH 6.5, thermodynamic. It is filed as physicochemical. On the procedure: • a. Add assay buffer into compound powder to make 4 mg/mL solution. • b. Sample tubes are shaken for 1 hour (1000 rpm), then equilibrated over night at room temperature. • c. Samples are centrifuged (10 min-12000 rpm) to precipitate un-dissolved particles. • d. Supernatants are transferred to new tubes. • e. Concentrations of the supernatants after centrifugation are determined by LCMSMS detection.

A word on the fraction unbound: it is the share of the substance not bound to proteins or other matrix. Read a high fraction unbound as weak binding. On to `CP(C)(=O)c1cc2c(Nc3ccc4scnc4c3)ccnc2cc1OC(F)(F)F` [A24], for which, in series [1] (human), the “protein binding in human (in words)” value is reported as “high protein binding”. The fraction unbound at 5 h, 1 μM in series [1] is 0.013; in series [2], 0.001; in series [3], 0.01. Also, the “protein binding in rat (in words)” value in series [2] (rat) is reported as “high protein binding”. Moreover, in series [3] (dog), the “protein binding in dog (in words)” value was “high protein binding”.
With `CP(C)(=O)c1cc2c(Nc3ccc4scnc4c3)ccnc2cc1O[C@@H]1CCOC1` [A15], the results for the fraction unbound at 5 h, 1 μM in series [1], in series [2] and in series [3] were 0.188, 0.059 and 0.129, respectively. Besides, the CLint scaled at 1 μM was found to be 4.16 mL/min/kg in series [4] and 49.5 mL/min/kg in series [5]. The half-life at 1 μM in series [4] is 831 min; in series [5], 50.2 min.
In the case of `CP(C)(=O)c1cc2c(Nc3ccc4scnc4c3)ccnc2cc1OC1COC1` [A16], the fraction unbound at 5 h, 1 μM in series [1] is 0.195; in series [2] it was 0.069; in series [3], 0.145. The CLint scaled at 1 μM in series [5] is 16.9 mL/min/kg. Moreover, the half-life at 1 μM in series [5] came out at 147 min.
As usually defined, the inhibition is the drop in the measured response relative to a control, in per cent. Lower therefore signals a weak effect. The term solubility denotes the dissolved amount per volume that the medium holds. Higher therefore signals much dissolved substance. For `COc1cc2nccc(Nc3ccc4scnc4c3)c2cc1P(C)(C)=O` [A6], the fraction unbound at 5 h, 1 μM in series [1] was 0.124; in series [2], 0.019; in series [3], 0.138. Moreover, the CLint scaled at 1 μM in series [4] turned out to be 5.21 mL/min/kg; in series [5] it was 25.9 mL/min/kg. In addition, the half-life at 1 μM in series [4] was 664 min; in series [5], 95.7 min. Also, in series [6], the inhibition at 0.01 µM was 50%. This molecule also yielded a solubility in series [7] of 6.12 mM (≈ 2340 µg/mL).
On to `CC1(COc2cc3nccc(Nc4ccc5scnc5c4)c3cc2P(C)(C)=O)COC1` [A9], for which the CLint scaled at 1 μM amounted to 30.1 mL/min/kg in series [4] and 63.9 mL/min/kg in series [5]. In addition, the half-life at 1 μM in series [4] came out at 115 min; in series [5], 38.9 min. The same molecule yielded an inhibition at 0.01 µM in series [6] of 55%. The concentration in solution in series [7] (solubility) was 0.283 mM (≈ 128 µg/mL).
As for `COCCOc1cc2nccc(Nc3ccc4scnc4c3)c2cc1P(C)(C)=O` [A8], in series [4], the CLint scaled at 1 μM was 13.7 mL/min/kg and the half-life at 1 μM is 253 min. Besides, in series [5], the CLint scaled at 1 μM stood at 25.9 mL/min/kg and the half-life at 1 μM was determined as 95.7 min. The molecule also yielded an inhibition at 0.01 µM in series [6] of 51%. Also, the solubility in series [7] is 1.04 mM (≈ 444 µg/mL).
Regarding `CP(C)(=O)c1cc2c(Nc3ccc4scnc4c3)ccnc2cc1OCCO` [A7, (4-(benzo[d]thiazol-5-ylamino)-7-(2-hydroxyethoxy)quinolin-6-yl)dimethylphosphine oxide], the CLint scaled at 1 μM in series [4] is 2.58 mL/min/kg; in series [5], 17 mL/min/kg. The half-life at 1 μM in series [4] came out at 1340 min; in series [5], 146 min. This molecule showed an inhibition at 0.01 µM in series [6] of 25%. The molecule also yielded a solubility in series [7] of 5.31 mM (≈ 2200 µg/mL).
With `CP(C)(=O)c1cc2c(Nc3ccc4scnc4c3)ccnc2cc1O[C@H]1CCOC1` [A14], the fraction unbound at 5 h, 1 μM is 0.177 in series [1], 0.073 in series [2] and 0.165 in series [3]. Further, the CLint scaled at 1 μM in series [4] came out at 5.58 mL/min/kg; in series [5], 38.6 mL/min/kg. For the same molecule, the values for the half-life at 1 μM in series [4] and in series [5] were 619 min and 64.4 min, respectively.

Source of the values: patent US20240190904A1, “Heteroaryl compounds as inhibitors of RIP2 kinase, composition and application thereof” (Accro Bioscience (HK) Limited, priority 2021, published 2024).
